# Source: ChEMBL document CHEMBL1201862, “PubChem BioAssay data set” (2004)
#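 Cultured in 96-well plates, cells were exposed to test compound for 48 hours across five concentrations. The concentration for 50% growth inhibition is given as GI50.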 Activity calls are given as the source filed them. Cut-off read from the data, not from the text of the source: active = GI50 up to about 1.1 µM and inactive = higher.
# Experiments:
# Assay in all cases: NCI anticancer screen, dose series, 48 h
# [1] = system: TK-10
# [2] = system: Hs-578T
# [3] = system: HT-29
# [4] = system: PC-3
# [5] = system: HCT-15
# [6] = system: MOLT-4
# [7] = system: DU-145
# [8] = system: NCI-H460
# [9] = system: OVCAR-3
# [10] = system: SK-MEL-5
# [11] = system: RPMI-8226
# [12] = system: NCI/ADR-RES
# [13] = system: KM12
# [14] = system: SR
# [15] = system: UO-31
# [16] = system: NCI-H522
# [17] = system: CAKI-1
# [18] = system: CCRF-CEM
# [19] = system: SK-MEL-28
# [20] = system: BT-549
SMILES,GI50 [1],GI50 [2],GI50 [3],GI50 [4],GI50 [5],GI50 [6],GI50 [7],GI50 [8],GI50 [9],GI50 [10],GI50 [11],GI50 [12],GI50 [13],GI50 [14],GI50 [15],GI50 [16],GI50 [17],GI50 [18],GI50 [19],GI50 [20]
Cc1cc(C)c(S(=O)(=O)N2CCCN(S(=O)(=O)c3c(C)cc(C)cc3C)OCCCON(S(=O)(=O)c3c(C)cc(C)cc3C)CCCN(S(=O)(=O)c3c(C)cc(C)cc3C)OCCCO2)c(C)c1,> 100 µM (inactive),51.8 µM (inactive),> 100 µM (inactive),> 100 µM (inactive),> 100 µM,> 100 µM (inactive),> 100 µM (inactive),> 100 µM (inactive),> 100 µM (inactive),> 100 µM (inactive),67.3 µM (inactive),> 100 µM (inactive),> 100 µM (inactive),> 100 µM (inactive),> 100 µM (inactive),> 100 µM (inactive),> 100 µM (inactive),> 100 µM (inactive),> 100 µM (inactive),> 100 µM (inactive)
CC(C)C1CC(CO)(CNc2nc(N)nc(Cl)c2/C=N\O)C1 (centres undefined),17.6 µM (inactive),15.9 µM (inactive),4.34 µM (inactive),9.27 µM (inactive),15.7 µM,10.3 µM (inactive),15.6 µM (inactive),0.685 µM (active),13.7 µM (inactive),0.71 µM (active),2.64 µM (inactive),3.42 µM (inactive),2.03 µM (inactive),0.507 µM (active),9.27 µM (inactive),4.53 µM (inactive),11.9 µM (inactive),13.6 µM (inactive),12.8 µM (inactive),11.7 µM (inactive)
O=[As]O,> 100 µM (inactive),> 100 µM (inactive),> 66.2 µM (inactive),> 100 µM (inactive),> 52.5 µM,> 56.8 µM (inactive),> 100 µM (inactive),> 100 µM (inactive),> 45.7 µM (inactive),32.4 µM (inactive),> 40.5 µM (inactive),> 100 µM (inactive),> 100 µM (inactive),18.9 µM (inactive),> 100 µM (inactive),22.8 µM (inactive),> 56.1 µM (inactive),15.6 µM (inactive),> 59 µM (inactive),41.3 µM (inactive)
CCc1ccc(/C=C\c2cc(OC)c(OC)c(OC)c2)cc1,0.337 µM (active),0.00255 µM (active),0.00993 µM (active),0.00325 µM (active),0.0449 µM,0.043 µM (active),0.0303 µM (active),0.0235 µM (active),0.00843 µM (active),0.0181 µM (active),0.0127 µM (active),0.00286 µM (active),0.0452 µM (active),0.00247 µM (active),0.0355 µM (active),0.0118 µM (active),0.038 µM (active),0.00998 µM (active),0.0627 µM (active),0.18 µM (active)
COC1C=COC2(C)Oc3c(C)c(O)c4c(c3C2=O)/C(=N/C2CCC(O)OC2C)C=C(NC(=O)/C(C)=C\C(=O)C2CC2C(O)C(C)C(O)C(C)C(OC(C)=O)C1C)C4=O (centres undefined),2.9 µM (inactive),2.41 µM (inactive),1.15 µM (inactive),2.3 µM (inactive),2.94 µM,1.94 µM (inactive),2.54 µM (inactive),3.26 µM (inactive),0.365 µM (active),1.95 µM (inactive),0.962 µM (active),14.2 µM (inactive),2.84 µM (inactive),1.7 µM (inactive),2.52 µM (inactive),0.946 µM (active),3.24 µM (inactive),0.474 µM (active),2.05 µM (inactive),2.44 µM (inactive)
CO[C@@H](c1ccccc1)[C@H](O)[C@@](O)(c1ccccc1)P(=O)(OC)OC,> 100 µM (inactive),> 100 µM (inactive),> 100 µM (inactive),> 100 µM (inactive),> 100 µM,> 100 µM (inactive),> 100 µM (inactive),> 100 µM (inactive),> 100 µM (inactive),> 100 µM (inactive),> 100 µM (inactive),> 100 µM (inactive),28.4 µM (inactive),> 100 µM (inactive),> 100 µM (inactive),78.9 µM (inactive),34.7 µM (inactive),> 100 µM (inactive),> 100 µM (inactive),> 100 µM (inactive)
O=C(O)c1ccccc1CC1Cc2ccccc2C1=O (centres undefined),> 100 µM (inactive),> 100 µM (inactive),> 100 µM (inactive),> 100 µM (inactive),> 100 µM,> 100 µM (inactive),> 100 µM (inactive),> 100 µM (inactive),> 100 µM (inactive),> 100 µM (inactive),> 100 µM (inactive),> 100 µM (inactive),> 100 µM (inactive),> 100 µM (inactive),> 100 µM (inactive),> 100 µM (inactive),> 100 µM (inactive),> 100 µM (inactive),> 100 µM (inactive),> 100 µM (inactive)
Cc1cccc2c(N)c3cccc(C(=O)NCC[N+]4(Cc5ccc([N+](=O)[O-])cc5)CCOCC4)c3nc12,> 79.1 µM (inactive),7.26 µM (inactive),25.8 µM (inactive),40.4 µM (inactive),45.1 µM,13.5 µM (inactive),27.3 µM (inactive),14.6 µM (inactive),61.1 µM (inactive),53.5 µM (inactive),26.1 µM (inactive),> 95.1 µM (inactive),37.8 µM (inactive),20.8 µM (inactive),48.2 µM (inactive),13.5 µM (inactive),> 100 µM (inactive),26.1 µM (inactive),49.7 µM (inactive),47.5 µM (inactive)
Cc1cc(C)n(-c2nc3ccccc3c(=O)[nH]2)n1,> 50.8 µM (inactive),24.8 µM (inactive),2.74 µM (inactive),5.96 µM (inactive),2.11 µM,1.6 µM (inactive),5.89 µM (inactive),1.21 µM (inactive),4.11 µM (inactive),2.64 µM (inactive),3.92 µM (inactive),1.53 µM (inactive),5.94 µM (inactive),0.906 µM (active),3.77 µM (inactive),2.81 µM (inactive),3.02 µM (inactive),0.356 µM (active),6.82 µM (inactive),18.8 µM (inactive)
O=c1[nH]c(=O)n(C2CC(O)C(CO)O2)cc1OC/C=C/Cc1ccccc1 (centres undefined),> 100 µM (inactive),> 100 µM (inactive),> 100 µM (inactive),> 100 µM (inactive),> 100 µM,> 100 µM (inactive),> 100 µM (inactive),> 100 µM (inactive),> 100 µM (inactive),> 100 µM (inactive),> 100 µM (inactive),> 100 µM (inactive),> 100 µM (inactive),> 100 µM (inactive),> 100 µM (inactive),> 100 µM (inactive),> 100 µM (inactive),> 100 µM (inactive),> 100 µM (inactive),> 100 µM (inactive)
N#CC(C#N)=CNC(N)=S,,> 100 µM (inactive),> 100 µM (inactive),> 100 µM (inactive),> 100 µM,> 100 µM (inactive),> 100 µM (inactive),> 100 µM (inactive),1.5 µM (inactive),> 100 µM (inactive),> 100 µM (inactive),> 100 µM (inactive),> 100 µM (inactive),> 100 µM (inactive),,> 100 µM (inactive),> 100 µM (inactive),> 100 µM (inactive),> 100 µM (inactive),> 100 µM (inactive)
C=CCN1C(=O)/C(=C/c2ccccc2)N=C1SC/C=C/C,79.1 µM (inactive),69.5 µM (inactive),,22.3 µM (inactive),47.5 µM,,57.5 µM (inactive),43.8 µM (inactive),> 100 µM (inactive),18.4 µM (inactive),15.7 µM (inactive),49.4 µM (inactive),37.4 µM (inactive),6.67 µM (inactive),39.9 µM (inactive),33 µM (inactive),> 100 µM (inactive),27.9 µM (inactive),69.3 µM (inactive),51.3 µM (inactive)
O=C(/C=C\c1ccsc1)c1ccccc1,15 µM (inactive),5.35 µM (inactive),4.06 µM (inactive),11.1 µM (inactive),3.61 µM,2.94 µM (inactive),12.8 µM (inactive),11.4 µM (inactive),14.7 µM (inactive),13.8 µM (inactive),2.22 µM (inactive),12.3 µM (inactive),2.97 µM (inactive),2.38 µM (inactive),7.1 µM (inactive),1.68 µM (inactive),3.71 µM (inactive),,12.4 µM (inactive),12.6 µM (inactive)
CCOC(=O)[C@@H]1C[C@@H]1c1ccc(O)c(O)c1,> 100 µM (inactive),43.1 µM (inactive),50.2 µM (inactive),12.7 µM (inactive),45.5 µM,6.18 µM (inactive),64 µM (inactive),58.9 µM (inactive),16.6 µM (inactive),14.4 µM (inactive),18.1 µM (inactive),46.6 µM (inactive),26 µM (inactive),14.5 µM (inactive),10.7 µM (inactive),4.62 µM (inactive),38.1 µM (inactive),,30.8 µM (inactive),19.7 µM (inactive)
